The test system of test [1] is thioredoxin reductase. Description: Thioredoxin reductase activity in treated Caki-1 cells. It is filed as cell-based, human.
Test [2] concerns MAPKAPK-3. Description: Immunoblotting of MAPKAPK-3 in Auranofin treated Caki-1 cells. It is filed as cell-based, human. As to conditions: Caki-1, Western blot (Fig. S46). (In western blotting, separated proteins are transferred to a membrane and probed.)
Test [3] concerns TrxR in human breast MCF-7 cancer cells. The conditions noted are these: MCF-7 cells, 4 μM; cited from earlier work.
Test [4] concerns TrxR in human ovarian A2780 cancer cells. As to conditions: 10 μM; cited from earlier work.
The test system of test [5] is human renal Caki-1 cancer cell lines. Put plainly: XTT cytotoxicity assay, Caki-1. It is filed as cell-based. As to conditions: read-out: IC50 Caki-1, 72 h incubation. In general terms: Tetrazolium dyes change colour on reduction, which living cells bring about.
Test [6] relates to non-tumorigenic human embryonic kidney cell lines HEK-293T. Description: XTT cytotoxicity assay, HEK-293T. It is filed as cell-based. As to conditions: read-out: IC50 HEK-293T, 72 h incubation.
The subject of test [7] is plasmid (pBR322) DNA. Put plainly: Electrophoresis mobility shift assay. The conditions noted are these: pBR322, metal/DNAbp ratios 0.25-2.0, 37 °C, 20 h. The class given is binding.
For test [8], the system named is human renal proximal tubular cells (RPTC). Put plainly: XTT cytotoxicity assay, RPTC. It is filed as cell-based. The conditions noted are these: read-out: IC50 RPTC, 72 h incubation.

`CC(=O)OC[C@H]1O[C@@H]([S-])[C@H](OC(C)=O)[C@@H](OC(C)=O)[C@@H]1OC(C)=O.CCP(CC)CC.[Au+]` [Auranofin]: in test [1] (5 μM, 5 hour incubation), the “inhibition of thioredoxin reductase activity” value was 74.1%. For the same compound, in test [1] (read-out: IC50 thioredoxin reductase, after 12 hours), the IC50 came to 0.61 µM. Also, the “expression of MAPKAPK-3” value in test [2] is listed as “failed to down-regulate MAKPAPK-3”. Further, the “inhibition of total TrxR activity” value is 18% in test [3] and 30% in test [4].
In the case of `N.N.[Cl][Pt][Cl]` [Cisplatin], the IC50 in test [5] came out at 29 ± 4.11 µM; in test [6], 3.27 ± 0.13 µM. Moreover, the “effect on electrophoretic mobility of plasmid forms” value in test [7] was “decreased mobility of the CCC form and increased mobility of the OC form”.
With `COc1ccc(C[C]2([Ti+2][C]3(Cc4ccc(OC)cc4)C=CC=C3)C=CC=C2)cc1.[Cl-].[Cl-]` [Titanocene Y], the IC50 in test [5] is 29.4 ± 4.18 µM.
Consider [Au(Hmba)(PPh3)] [compound 4], for which the IC50 amounted to 2.76 ± 0.35 µM in test [5], 1.11 ± 0.65 µM in test [6] and 3.87 ± 0.15 µM in test [8]. For the same compound, in test [7], the “effect on electrophoretic mobility of plasmid forms” value was “did not affect the mobility of the faster-running supercoiled form”.

Usually IC50 stands for the point on the concentration scale where inhibition reaches its midpoint.

The values above are taken from PMC4869729 (Chemical Science, 2015).
